Like-named read-outs stand apart in the source and are kept apart here.

The subject of assay [1] is NCI-H929 human multiple myeloma tumor cell line. The assay is described as follows: NCI-H929 cell viability assay (CellTiter-Glo). In kind it is cell-based. The conditions noted are these: NCI-H929, read-out: H929 Viability IC50 (μM), 10% FBS, 24 hours of compound treatment. For orientation: Cellular ATP, detected with luciferase, serves as a proxy for viable cell number.

The target in assay [2] is GST-MCL-1 (Homo sapiens (Human), UniProt Q07820). As to the kind of experiment: TR-FRET MCL-1 binding assay (competition with probe F-Bak). The gist of the method: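 Compounds as 11 three-fold dilutions from 25 μM with GST-MCL-1, F-Bak probe and Tb-anti-His antibody, 2 h at room temperature. TR-FRET at 340 nm excitation, 520/525 nm (F-Bak) and 495/510 nm (Tb) emission. Run without human serum and with 10% HS.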
Sequence of GST-MCL-1 (Q07820 whole entry): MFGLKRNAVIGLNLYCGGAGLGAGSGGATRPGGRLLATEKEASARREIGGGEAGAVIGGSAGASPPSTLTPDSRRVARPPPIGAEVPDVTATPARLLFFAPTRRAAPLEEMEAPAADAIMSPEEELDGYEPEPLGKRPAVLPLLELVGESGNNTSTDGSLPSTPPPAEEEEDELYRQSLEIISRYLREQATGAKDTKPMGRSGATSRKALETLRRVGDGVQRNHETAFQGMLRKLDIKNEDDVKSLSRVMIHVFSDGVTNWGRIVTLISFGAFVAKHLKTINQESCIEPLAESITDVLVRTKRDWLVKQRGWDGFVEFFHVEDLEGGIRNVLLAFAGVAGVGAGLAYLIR

Assay [3] relates to AMO-1 human multiple myeloma tumor cell line. The assay is described as follows: AMO-1 cell viability assay (CellTiter-Glo). In kind it is cell-based. Conditions: AMO1, read-out: AMO-1 Viability IC50 (μM), 10% FBS, 24 hours of compound treatment.
Protocol: In one exemplary set of conditions, NCI-H929 or AMO-1 (ATCC. Manassas, Va.) were plated 4.000 cells per well in 384-well tissue culture plates (Corning. Corning, N.Y.) in a total volume of 25 μL RPMI tissue culture medium supplemented with 10% fetal bovine serum (Sigma-Aldrich, St. Louis, Mo.) and treated with a 3-fold serial dilution of the compounds of interest with a Labcyte Echo from a final concentration of 10 μM to 0.0005 μM. Each concentration was tested in duplicate at least 3 independent times. A luminescent signal proportional to the number of viable cells following 24 hours of compound treatment was determined using the CellTiter-Glo® Luminescent Cell Viability Assay according to the manufacturer's recommendations (Promega Corp., Madison, Wis.). The plates were read in a Perkin Elmer Envision using a Luminescence protocol. To generate dose response curves the data is normalized to percent viability by setting the averages of the staurosporine (10 uM) and DMSO only control wells to 0% and (00)% viability respectively. The IC50 values for the compounds are generated by fitting the normalized data with Accelrys Assay Explorer 3.3 to a sigmoidal curve model using linear regression.
Setting [4] is: read-out: MCL-1 Binding Ki (nM, 10% HS), in the presence of 10% HS.
The mark [5] stands for this setting: without HS, read-out: MCL-1 Binding Ki.

For orientation: IC50 means the concentration at which inhibition is half-maximal. A word on the Ki: it is a dissociation constant, usually derived from enzyme kinetics or from competition with a known ligand. As for `Cc1c(Cl)c2c(Cl)c(C)c1-c1c(C3=CCCC3)sc3ncnc(c13)O[C@@H](C(=O)O)Cc1cc(ccc1OCc1ccnc(C3=CC[C@@](F)(COC[C@@H]4COCCO4)CC3)n1)OC[C@@H](CN1CCN(C)CC1)O2` [Example 38, (7R,16R)-19,23-dichloro-1-(cyclopent-1-en-1-yl)-10-({2-[(4R)-4-({[(2S)-1,4-dioxan-2-yl]methoxy}methyl)-4-fluorocyclohex-1-en-1-yl]pyrimidin-4-yl}methoxy)-20,22-dimethyl-16-[(4-methylpiperazin-1-yl)methyl]-7,8,15,16-tetrahydro-18,21-etheno-13,9-(metheno)-6,14,17-trioxa-2-thia-3,5-diazacyclononadeca[1,2,3-cd]indene-7-carboxylic acid], the half-maximal inhibitory concentration (IC50) amounted to 0.000748 µM in assay [1] and 0.000267 µM in assay [3]. The Ki in assay [2] (setting [4]) is 0.63 nM; in assay [2] (setting [5]) it was 0.036 nM.

For `Cc1c(Cl)c2c(Cl)c(C)c1-c1c(-c3ccc(F)cc3)sc3ncnc(c13)O[C@@H](C(=O)O)Cc1cc(ccc1OCc1ccnc([C@H]3CC[C@](F)(COC[C@H]4COCCO4)CC3)n1)OC[C@@H](CN1CCN(C)CC1)O2` [Example 39, (7R,16R)-19,23-dichloro-10-({2-[(1S,4s)-4-({[(2R)-1,4-dioxan-2-yl]methoxy}methyl)-4-fluorocyclohexyl]pyrimidin-4-yl}methoxy)-1-(4-fluorophenyl)-20,22-dimethyl-16-[(4-methylpiperazin-1-yl)methyl]-7,8,15,16-tetrahydro-18,21-etheno-13,9-(metheno)-6,14,17-trioxa-2-thia-3,5-diazacyclononadeca[1,2,3-cd]indene-7-carboxylic acid], the IC50 is 0.000239 µM in assay [1] and 0.000235 µM in assay [3]. Moreover, the inhibitory constant (Ki) in assay [2] (setting [4]) was found to be 0.06 nM; in assay [2] (setting [5]), 0.004 nM.

Turning to `Cc1c(Cl)c2c(Cl)c(C)c1-c1c(-c3ccc(F)cc3)sc3ncnc(c13)O[C@@H](C(=O)O)Cc1cc(ccc1OCc1ccnc(C3=CC[C@](F)(COC[C@H]4COCCO4)CC3)n1)OC[C@@H](CN1CCN(C)CC1)O2` [Example 40, (7R,16R)-19,23-dichloro-10-({2-[(4S)-4-({[(2R)-1,4-dioxan-2-yl]methoxy}methyl)-4-fluorocyclohex-1-en-1-yl]pyrimidin-4-yl}methoxy)-1-(4-fluorophenyl)-20,22-dimethyl-16-[(4-methylpiperazin-1-yl)methyl]-7,8,15,16-tetrahydro-18,21-etheno-13,9-(metheno)-6,14,17-trioxa-2-thia-3,5-diazacyclononadeca[1,2,3-cd]indene-7-carboxylic acid], the results for the IC50 in assay [1] and in assay [3] were 0.000271 µM and 0.000352 µM, respectively. For the same compound, the Ki was 0.63 nM in assay [2] (setting [4]) and 0.014 nM in assay [2] (setting [5]).

On to `Cc1c(Cl)c2c(Cl)c(C)c1-c1c(-c3ccc(F)cc3)sc3ncnc(c13)O[C@@H](C(=O)O)Cc1cc(ccc1OCc1ccnc(-c3ccc(NC[C@@H]4COCCO4)nc3)n1)OC[C@@H](CN1CCN(C)CC1)O2` [Example 41, (7R,16R)-19,23-dichloro-10-({2-[6-({[(2R)-1,4-dioxan-2-yl]methyl}amino)pyridin-3-yl]pyrimidin-4-yl}methoxy)-1-(4-fluorophenyl)-20,22-dimethyl-16-[(4-methylpiperazin-1-yl)methyl]-7,8,15,16-tetrahydro-18,21-etheno-13,9-(metheno)-6,14,17-trioxa-2-thia-3,5-diazacyclononadeca[1,2,3-cd]indene-7-carboxylic acid], for which the values for the IC50 in assay [1] and in assay [3] were 0.000595 µM and 0.000589 µM, respectively. Further, the Ki amounted to 0.14 nM in assay [2] (setting [4]) and 0.009 nM in assay [2] (setting [5]).

On to `Cc1c(Cl)c2c(Cl)c(C)c1-c1c(-c3ccc(F)cc3)sc3ncnc(c13)O[C@@H](C(=O)O)Cc1cc(ccc1OCc1ccnc(C3=CC[C@@](F)(COC[C@@H]4COCCO4)CC3)n1)OC[C@@H](CN1CCN(C)CC1)O2` [Example 42, (7R,16R)-19,23-dichloro-10-({2-[(4R)-4-({[(2S)-1,4-dioxan-2-yl]methoxy}methyl)-4-fluorocyclohex-1-en-1-yl]pyrimidin-4-yl}methoxy)-1-(4-fluorophenyl)-20,22-dimethyl-16-[(4-methylpiperazin-1-yl)methyl]-7,8,15,16-tetrahydro-18,21-etheno-13,9-(metheno)-6,14,17-trioxa-2-thia-3,5-diazacyclononadeca[1,2,3-cd]indene-7-carboxylic acid], for which the IC50 came to 0.000356 µM in assay [1] and 0.000404 µM in assay [3]. Moreover, the Ki in assay [2] (setting [4]) was 0.24 nM; in assay [2] (setting [5]) it was 0.018 nM.

As to `Cc1c(Cl)c2c(Cl)c(C)c1-c1c(-c3ccc(F)cc3)sc3ncnc(c13)O[C@@H](C(=O)O)Cc1cc(ccc1OCc1ccnc(C3=CC[C@@](F)(COC[C@H]4COCCO4)CC3)n1)OC[C@@H](CN1CCN(C)CC1)O2` [Example 43, (7R,16R)-19,23-dichloro-10-({2-[(4R)-4-({[(2R)-1,4-dioxan-2-yl]methoxy}methyl)-4-fluorocyclohex-1-en-1-yl]pyrimidin-4-yl}methoxy)-1-(4-fluorophenyl)-20,22-dimethyl-16-[(4-methylpiperazin-1-yl)methyl]-7,8,15,16-tetrahydro-18,21-etheno-13,9-(metheno)-6,14,17-trioxa-2-thia-3,5-diazacyclononadeca[1,2,3-cd]indene-7-carboxylic acid], the IC50 worked out at 0.000365 µM in assay [1] and 0.000346 µM in assay [3]. Further, the results for the Ki in assay [2] (setting [4]) and in assay [2] (setting [5]) were 0.18 nM and 0.02 nM, respectively.

As to `Cc1c(Cl)c2c(Cl)c(C)c1-c1c(-c3ccc(F)cc3)sc3ncnc(c13)O[C@@H](C(=O)O)Cc1cc(ccc1OCc1ccnc([C@H]3CC[C@H](OC[C@@H]4COCCO4)CC3)n1)OC[C@@H](CN1CCN(C)CC1)O2` [Example 44, (7R,16R)-19,23-dichloro-10-({2-[(1S,4r)-4-{[(2S)-1,4-dioxan-2-yl]methoxy}cyclohexyl]pyrimidin-4-yl}methoxy)-1-(4-fluorophenyl)-20,22-dimethyl-16-[(4-methylpiperazin-1-yl)methyl]-7,8,15,16-tetrahydro-18,21-etheno-13,9-(metheno)-6,14,17-trioxa-2-thia-3,5-diazacyclononadeca[1,2,3-cd]indene-7-carboxylic acid], the results for the IC50 in assay [1] and in assay [3] were 0.000286 µM and 0.000268 µM, respectively. In addition, the Ki came to 0.16 nM in assay [2] (setting [4]) and 0.02 nM in assay [2] (setting [5]).

For the compound `Cc1c(Cl)c2c(Cl)c(C)c1-c1c(-c3ccc(F)cc3)sc3ncnc(c13)O[C@@H](C(=O)O)Cc1cc(ccc1OCc1ccnc(C3=CC[C@](F)(COC[C@@H]4COCCO4)CC3)n1)OC[C@@H](CN1CCN(C)CC1)O2` [Example 45, (7R,16R)-19,23-dichloro-10-({2-[(4S)-4-({[(2S)-1,4-dioxan-2-yl]methoxy}methyl)-4-fluorocyclohex-1-en-1-yl]pyrimidin-4-yl}methoxy)-1-(4-fluorophenyl)-20,22-dimethyl-16-[(4-methylpiperazin-1-yl)methyl]-7,8,15,16-tetrahydro-18,21-etheno-13,9-(metheno)-6,14,17-trioxa-2-thia-3,5-diazacyclononadeca[1,2,3-cd]indene-7-carboxylic acid], the IC50 is 0.000258 µM in assay [1] and 0.000249 µM in assay [3]. For the same compound, the Ki came to 0.16 nM in assay [2] (setting [4]) and 0.012 nM in assay [2] (setting [5]).

For `Cc1c(Cl)c2c(Cl)c(C)c1-c1c(-c3ccc(F)cc3)sc3ncnc(c13)O[C@@H](C(=O)O)Cc1cc(ccc1OCc1ccnc([C@H]3CC[C@@](F)(COC[C@@H]4COCCO4)CC3)n1)OC[C@@H](CN1CCN(C)CC1)O2` [Example 46, (7R,16R)-19,23-dichloro-10-({2-[(1S,4r)-4-({[(2S)-1,4-dioxan-2-yl]methoxy}methyl)-4-fluorocyclohexyl]pyrimidin-4-yl}methoxy)-1-(4-fluorophenyl)-20,22-dimethyl-16-[(4-methylpiperazin-1-yl)methyl]-7,8,15,16-tetrahydro-18,21-etheno-13,9-(metheno)-6,14,17-trioxa-2-thia-3,5-diazacyclononadeca[1,2,3-cd]indene-7-carboxylic acid], the figures for the IC50 in assay [1] and in assay [3] were 0.000418 µM and 0.000579 µM, respectively. In addition, the results for the Ki in assay [2] (setting [4]) and in assay [2] (setting [5]) were 0.24 nM and 0.022 nM, respectively.

Regarding `Cc1c(Cl)c2c(Cl)c(C)c1-c1c(-c3ccc(F)cc3)sc3ncnc(c13)O[C@@H](C(=O)O)Cc1cc(ccc1OCc1ccnc([C@H]3CC[C@@](F)(COC[C@H]4COCCO4)CC3)n1)OC[C@@H](CN1CCN(C)CC1)O2` [Example 47, (7R,16R)-19,23-dichloro-10-({2-[(1R,4r)-4-({[(2R)-1,4-dioxan-2-yl]methoxy}methyl)-4-fluorocyclohexyl]pyrimidin-4-yl}methoxy)-1-(4-fluorophenyl)-20,22-dimethyl-16-[(4-methylpiperazin-1-yl)methyl]-7,8,15,16-tetrahydro-18,21-etheno-13,9-(metheno)-6,14,17-trioxa-2-thia-3,5-diazacyclononadeca[1,2,3-cd]indene-7-carboxylic acid], the IC50 in assay [1] amounted to 0.000344 µM; in assay [3], 0.000463 µM. The Ki stood at 0.521 nM in assay [2] (setting [4]) and 0.0133 nM in assay [2] (setting [5]).

For the compound `Cc1c(Cl)c2c(Cl)c(C)c1-c1c(C3=CCCC3)sc3ncnc(c13)O[C@@H](C(=O)O)Cc1cc(ccc1OCc1ccnc(C3=CC[C@@](F)(COC[C@H]4COCCO4)CC3)n1)OC[C@@H](CN1CCN(C)CC1)O2` [Example 48, (7R,16R)-19,23-dichloro-1-(cyclopent-1-en-1-yl)-10-({2-[(4R)-4-({[(2R)-1,4-dioxan-2-yl]methoxy}methyl)-4-fluorocyclohex-1-en-1-yl]pyrimidin-4-yl}methoxy)-20,22-dimethyl-16-[(4-methylpiperazin-1-yl)methyl]-7,8,15,16-tetrahydro-18,21-etheno-13,9-(metheno)-6,14,17-trioxa-2-thia-3,5-diazacyclononadeca[1,2,3-cd]indene-7-carboxylic acid], the IC50 is 0.000593 µM in assay [1] and 0.000641 µM in assay [3]. Besides, the Ki in assay [2] (setting [4]) came to 0.648 nM; in assay [2] (setting [5]), 0.026 nM.
